Where “and” joins values, the source holds several entries; their conditions need not be identical. Equal values may be shown once.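 48-hour exposure; five concentrations; linearly interpolated endpoints. Abbreviation: GI50, concentration required for 50% inhibition of growth. TGI denotes the concentration required for complete inhibition of growth.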
Legend:
Assay in all cases: NCI anticancer screen, dose series, 48 h
COLO 205 colon = test system: COLO 205 colon
NCI/ADR-RES ovarian = test system: NCI/ADR-RES ovarian
UACC-257 melanoma = test system: UACC-257 melanoma
T-47D breast = test system: T-47D breast
MDA-MB-231 breast = test system: MDA-MB-231 breast
HCC-2998 colon = test system: HCC-2998 colon
HL-60(TB) leukemia = test system: HL-60(TB) leukemia
A498 renal = test system: A498 renal
SN12C renal = test system: SN12C renal
UO-31 renal = test system: UO-31 renal
SF-295 CNS = test system: SF-295 CNS
IGROV1 ovarian = test system: IGROV1 ovarian
SF-539 CNS = test system: SF-539 CNS
UACC-62 melanoma = test system: UACC-62 melanoma
TK-10 renal = test system: TK-10 renal
OVCAR-5 ovarian = test system: OVCAR-5 ovarian

Structure (SMILES)	TGI (COLO 205 colon)	TGI (NCI/ADR-RES ovarian)	TGI (UACC-257 melanoma)	TGI (T-47D breast)	TGI (MDA-MB-231 breast)	TGI (HCC-2998 colon)	TGI (HL-60(TB) leukemia)	TGI (A498 renal)	TGI (SN12C renal)	TGI (UO-31 renal)	TGI (SF-295 CNS)	TGI (IGROV1 ovarian)	TGI (SF-539 CNS) [µM]	TGI (UACC-62 melanoma)	TGI (TK-10 renal)	TGI (OVCAR-5 ovarian)	GI50 (SF-539 CNS)
CC(=O)Nc1ccc(-c2nc3ccccc3s2)cc1I	> 100 µM	> 96.3 µM	> 100 µM	> 93.2 µM	> 65.1 µM	> 100 µM	> 100 µM	36.3 µM	> 100 µM	67.9 µM	> 100 µM	20 µM	55.6	> 76.9 µM			
CN(C)CCN=C1Nc2ccccc2C(=S)N2CSCC12 (centres undefined)	> 100 µM	> 100 µM	> 100 µM	> 100 µM	> 100 µM	> 100 µM		> 100 µM	> 100 µM	> 100 µM	> 100 µM	> 100 µM		> 100 µM	> 100 µM	> 100 µM	
c1cc2c(c(NC3=NCCO3)c1)CCC2	> 100 µM	> 100 µM	> 100 µM	> 100 µM	> 100 µM		> 100 µM	> 100 µM	> 100 µM	> 100 µM	> 100 µM	> 100 µM	> 100	> 100 µM	> 100 µM	> 100 µM	
Cc1ccc(N=Nc2ccc(O)c(CN(C)C)c2)cc1	35.2 µM	53.7 µM	32.3 µM	39.5 µM	56.3 µM	29.5 µM	41.3 µM	40.2 µM	> 100 µM	54.1 µM	33.7 µM	35 µM	33.3	44.3 µM	44.5 µM	29.7 µM	
CC1=C/C(=N\O)C(C(O)(C(F)(F)F)C(F)(F)F)C(C)(C)C1 (centres undefined)	> 10 µM	> 10 µM	> 10 µM	> 10 µM	> 10 µM	> 10 µM		> 10 µM	> 10 µM	> 10 µM	> 10 µM	> 10 µM	> 10	> 10 µM	> 10 µM	> 10 µM	
O=C1NC(=O)C2(CCCCCC2)N1	> 100 µM	> 100 µM	> 100 µM	> 100 µM	> 100 µM			> 100 µM	> 100 µM	> 100 µM	> 100 µM	> 100 µM	> 100	> 100 µM	> 100 µM	> 100 µM	
Clc1cc(Cl)cc(C2ON=C(c3ccccc3)N2C23CC4CC(CC(C4)C2)C3)c1 (centres undefined)	> 10 µM	> 10 µM	> 10 µM	> 10 µM	> 10 µM	> 10 µM		> 10 µM	> 10 µM	> 10 µM	> 10 µM	> 10 µM	> 10	> 10 µM	> 10 µM	> 10 µM	
COc1ccc(/C(O)=C/c2nc3cccnc3nc2/C=C(\O)c2ccc(OC)cc2)cc1	> 100 µM	53 µM	> 100 µM	86.1 µM	31.2 µM	> 100 µM	> 100 µM	> 100 µM	42.5 µM	71.2 µM	46.3 µM	25.4 µM	25.4	44.7 µM	37.7 µM	> 100 µM	
COC(=O)c1c(O)ccc2c1c1c(n2Cc2ccc(Cl)cc2Cl)C(=O)c2ccccc2C1=O	24.3 µM	24.1 µM	30.1 µM	13.7 µM	23.5 µM	9.33 µM	34.2 µM	33.7 µM	5.62 µM	22.8 µM	31.5 µM	26.9 µM	27.7		29 µM	42.9 µM	
C[C@]12CC/C(=N\O)C=C1CC[C@@H]1[C@@H]2CC[C@]2(C)C(=N/O)/C(=C/c3ccc([N+](=O)[O-])cc3)C[C@@H]12	53.3 µM	> 100 µM	33.9 µM	3.69 µM	29.6 µM		8.91 µM	45.4 µM	30.7 µM	20.4 µM	8.96 µM	12.5 µM	> 100	14.6 µM	91 µM		
COC(=O)C1OC(O[C@H]2CC[C@]3(C)[C@H]4CC=C5[C@@H]6CC(C)(C)CC[C@]6(C(=O)OC6OCC(O)C(O)C6OC6OC(C)C(OC7OCC(O)C(OC8OCC(O)C(O)C8O)C7O)C(OC7OCC(O)C(O)C7O)C6O)CC[C@@]5(C)[C@]4(C)CC[C@H]3C2(C)C)C(O)C(OC2OCC(O)C(O)C2O)C1O (some centres undefined)	2.97 µM and 3.08 µM	> 100 µM and 21 µM	8.58 µM and 10.8 µM	42.3 µM and 19.2 µM	8.81 µM and 13.5 µM	3.13 µM and 3.37 µM	4.36 µM and 5.23 µM	3.55 µM and 4.34 µM	5.4 µM and 5.69 µM	4.36 µM and 4.14 µM	11.5 µM and 17 µM	> 100 µM and 24.9 µM	> 100	8.36 µM and 13.7 µM	70.4 µM and 24.4 µM	22.5 µM and 15.8 µM	> 100 µM and 47.6 µM
CCCCC(Sc1cc(Cl)c(C)cc1S(=O)(=O)Nc1n[nH]c(N)n1)C(=O)OC (centres undefined)	> 10 µM	> 10 µM	> 10 µM	> 10 µM	> 10 µM	> 10 µM	> 10 µM	> 10 µM	> 10 µM		> 10 µM	> 10 µM	> 10	> 10 µM	> 10 µM	> 10 µM	
CC(C)NC(=O)OCc1c(COC(=O)NC(C)C)c(-c2cc[n+](COC(=O)C(C)(C)C)cc2)n2c1CCC2	> 100 µM	> 100 µM	> 100 µM	> 100 µM	> 100 µM	> 100 µM	> 100 µM	> 100 µM	> 100 µM	> 100 µM	> 100 µM	> 100 µM	> 100	> 100 µM	> 100 µM	> 100 µM	
O=C(O)CCc1ccc2c(c1)C(=O)CC2	> 100 µM	> 100 µM	> 100 µM	> 100 µM	> 100 µM	> 100 µM	> 100 µM	> 100 µM	> 100 µM	> 100 µM	> 100 µM	> 100 µM	> 100	> 100 µM	> 100 µM	> 100 µM	
COc1ccc(OCc2ccc3nc(-c4ccccc4)c(Cl)nc3c2)cc1	81.5 µM	> 100 µM	> 100 µM	> 100 µM	37.9 µM	> 100 µM	45.9 µM	81.2 µM	> 100 µM	> 100 µM	62.1 µM	> 100 µM	42.3		55.3 µM	> 100 µM	
c1ccc([P+](Cc2ccccc2C[P+](c2ccccc2)(c2ccccc2)c2ccccc2)(c2ccccc2)c2ccccc2)cc1	> 100 µM	> 100 µM	> 100 µM	> 100 µM	> 100 µM	> 100 µM	> 100 µM	> 100 µM	> 100 µM	> 100 µM	> 100 µM	> 100 µM	> 100	> 100 µM	> 100 µM	> 100 µM	
CC(=O)Nc1cc2c3c(c1)CCCN3CCC2	> 100 µM	> 100 µM	> 100 µM	> 100 µM	> 100 µM	> 100 µM	> 100 µM	> 100 µM		> 100 µM	> 100 µM	> 100 µM	> 100	> 100 µM	> 100 µM	> 100 µM	
CCOC(=O)[C@@]12C3C=CC(CC3)[C@]1(C(=O)c1ccccc1)C(=O)C(=O)N2c1ccccc1 (some centres undefined)	> 100 µM	> 100 µM		> 100 µM	> 100 µM	> 100 µM		> 100 µM	> 100 µM	> 100 µM	> 100 µM		> 100	> 100 µM	> 100 µM	> 100 µM	
CCCCCCCCCCCCCCCCOCC(Cl)COP(=O)(O)OP(=O)(O)OCC1OC(n2cc(C)c(=O)[nH]c2=O)CC1O (centres undefined)	> 100 µM	> 100 µM	> 100 µM	> 100 µM	> 100 µM	> 100 µM	> 100 µM	> 100 µM	> 100 µM	> 100 µM	> 100 µM	> 100 µM	> 100		> 100 µM	> 100 µM	
CN(N)c1cc(=O)[nH]c(=O)[nH]1		> 100 µM	> 100 µM	> 100 µM	> 100 µM	> 100 µM	> 100 µM	> 100 µM	> 100 µM		> 100 µM	> 100 µM	> 100	> 100 µM	> 100 µM		
CN(C)S(=O)(=O)/N=C/c1cccc(/C=N/S(=O)(=O)N(C)C)c1	> 100 µM	> 100 µM	> 100 µM	> 100 µM	> 100 µM	> 100 µM	> 100 µM	> 100 µM	> 100 µM	> 100 µM	> 100 µM		> 100	> 100 µM	> 100 µM	> 100 µM	
COc1cc(C2C(C#N)=C(N)OC3=C2CCS(=O)(=O)c2ccc(C)cc23)cc(OC)c1OC (centres undefined)	> 100 µM	> 100 µM	> 100 µM	> 100 µM	> 100 µM	> 100 µM	> 100 µM	> 100 µM	> 100 µM	> 100 µM		> 100 µM		> 100 µM	> 100 µM	> 100 µM	
CCOC(=O)c1cnc2n(c1=N)[C@H]1CCCC[C@@H]1N2	> 100 µM	> 100 µM	> 100 µM	> 100 µM	> 100 µM	> 100 µM	> 100 µM	> 100 µM	> 100 µM	> 100 µM	> 100 µM	> 100 µM	> 100	> 100 µM		> 100 µM	
CN(NC(=O)c1cccs1)C1=NCCCCN1	> 100 µM	> 100 µM	> 100 µM	> 100 µM	> 100 µM	> 100 µM	> 100 µM	> 100 µM		> 100 µM	> 100 µM	> 100 µM	> 100	> 100 µM	> 100 µM	> 100 µM	
CC(SC(=S)N1CCOCC1)C(=O)Nc1nnc(-c2ccccc2)o1 (centres undefined)	> 100 µM	96.4 µM	> 100 µM	> 100 µM	> 100 µM		20.5 µM	> 100 µM	> 100 µM	> 100 µM	> 100 µM	> 100 µM	> 100		> 100 µM	> 100 µM	
Cc1nnc2sc(NN)nn12	> 100 µM	> 100 µM	> 100 µM	> 100 µM	> 100 µM			> 100 µM	> 100 µM	> 100 µM	> 100 µM	> 100 µM	> 100	> 100 µM	> 100 µM	> 100 µM	
NC(=S)N/N=C1\NC(=O)/C(=C/c2ccc3c(c2)OCO3)S1	71.3 µM	78.7 µM	76.1 µM	71.2 µM	77.1 µM	> 100 µM	63.3 µM	30.3 µM	> 100 µM	> 100 µM	> 100 µM	49.4 µM	> 100		> 100 µM	73.1 µM	
C=C[C@@H]1C[C@]2(C(=O)OC)Cc3nc4ccccc4nc3CC(C(=O)OC)=C2O1	> 100 µM	> 100 µM	> 100 µM	> 100 µM	> 100 µM		> 100 µM	> 100 µM	> 100 µM		> 100 µM	> 100 µM	> 100	> 100 µM	> 100 µM	> 100 µM	
CCN(CC)CCNC(=O)c1cc2cc(NC(=O)c3cc4cc(NC(=O)c5cc6cc(N)ccc6[nH]5)ccc4[nH]3)ccc2[nH]1	> 100 µM	> 100 µM	> 100 µM	> 100 µM	> 100 µM	> 100 µM		> 100 µM	> 100 µM	> 100 µM	> 100 µM	> 100 µM		> 100 µM	> 100 µM	> 100 µM	
CC1Oc2c(c(=O)oc3ccccc23)[C@@]1(C)CC1C[C@H](C)C(=O)O1 (some centres undefined)	> 100 µM	> 100 µM	> 100 µM	> 100 µM	> 100 µM	56.2 µM	> 100 µM	> 100 µM		90.2 µM	> 100 µM	> 100 µM	64.2	42.4 µM	> 100 µM	> 100 µM	
